The values that follow come from patent publication US7553821B2, “Methods for selectively modulating survivin apoptosis pathways” (Yale University, priority 2000, dated 2009).

This assay concerns HeLa cells. In words: Nuclear morphology of apoptosis (DAPI) in transfected HeLa cells. The format is cell-based. From the text: HeLa cells transfected with GFP-vector (vector), GFP-survivin(T34A) (T34A), or GFP-caspase-9 (Met^1-Asp^330) (caspase-9), were scored morphologically for nuclear integrity by DAPI staining after 48-h. Arrows, nuclear fragmentation and chromatin condensation in GFP-expressing cells.
The experimental procedures are the same as in A. Data are the meaνSEM of four independent experiments.
HeLa cells were transfected with the various indicated combinations of GFP-constructs, with or without etoposide (10 μg/ml) or TNFα (10 ng/ml) plus cycloheximide (10 μg/ml), harvested after 48 h, and GFP-labeled cells were morphologically scored for nuclear fragmentation by DAPI staining, as described in FIG. 2B. DN, dominant negative. Data are the mea±SEM of four independent experiments.
Transfection experiments. For transient transfection, HeLa cells in C-6 tissue culture plates (Costar, Cambridge, Mass.) at ˜60-70% confluency, were incubated in 1 ml of serum-free OptiMEM medium (Life Technologies, Gaithersburg, Md.) for 20 min, and transfected with 2.5 μg of the various plasmid cDNAs plus 9 μl Lipofectamine (Life Technologies). After a 5 h incubation at 37° C., the mixture was aspirated and substituted with complete growth medium for 48-72 h. To generate stable YUSAC-2 transfectants, a survivin(T34A) cDNA was inserted into the HindIII-SpeI sites of the pTet-splice vector (Dr. D. Schatz, Yale University School of Medicine), downstream of the regulatory sequences of the Tet-resistance operon (TetO). YUSAC-2 cells were transfected with 0.8 μg pTet-T34A, 0.8 μg of the transactivation/selection plasmid ptTA-Neo and 5 μl Lipofectamine in 1 ml of OptiMem. Forty-eight h after transfection, cells were re-plated at low density in 15×150 mm plates in growth medium containing 1.5 mg/ml Geneticin (G418, Life Technologies), 2 mM sodium hydroxide and 0.5 μg/ml Tet (Sigma, St. Louis, Mo.) (selection medium). After a 3-week culture, ninety-six individual clones were screened for differential growth in the presence or absence of Tet. […] Flow cytometry. HeLa cells transfected with the various GFP constructs in the presence or in the absence of the broad-spectrum caspase inhibitor Z-VAD-fmk (20 μM) were harvested after 48-h (non-adherent and adherent cells), washed in PBS, pH 7.0, and fixed in cold 70% ethanol for 30 min on ice. After washes in PBS, cells (10×10^6/ml) were stained with 25 μg/ml propidium iodide (Sigma), 0.05% Triton X-100 and 100 μg/ml RNAse A (Boehringer Mannheim, Indianapolis, Ind.) for 45 min at 22° C. Gated GFP-expressing cells were analyzed for DNA content by flow cytometry on a FACSort (Becton Dickinson, San Jose, Calif.) using a Cell Quest software. In other experiments, F5-C4 cells were synchronized at the G1/S boundary by culture with 5-mM thymidine for 16 h at 37° C., in the presence or in the absence of Tet. At the end of the incubation, cells were released from the thymidine block, and harvested at 3-h intervals for DNA content analysis by propidium iodide staining and flow cytometry, or, alternatively, for caspase-9 processing by Western blotting (see below). TUNEL staining. Internucleosomal DNA fragmentation of F5.C4 cells in the presence or in the absence of Tet was carried out by end-labeling with terminal deoxynucleotidyl transferase (TdT) and peroxidase-conjugated anti-digoxigenin antibody using the ApopTag kit (Intergen, Purchase, N.Y.), as described previously (Grossman et al., 1999). Immunoprecipitation and Western blotting. Asynchronously growing or synchronized HeLa cells were lysed in 200 μl of lysis buffer containing 50 mM Tris, pH 7.5, 1% NP-40, 0.25% DOC, 150 mM NaCl, 1 mM PMSF, 10 μg/ml aprotinin, 10 μg/ml leupeptin, 10 μg/ml pepstatin, 1 mM Na3VO4, 20 mM NaF, 0.2 mM EGTA, 1 mM EDTA, pH 8.0, for 30 min at 4° C. Insoluble material was removed by centrifugation at 14,000 rpm for 15 min, and two-hundred μg of protein lysate was pre-absorbed with 25 μl of a 50:50 Protein A Sepharose slurry (Pharmacia) for 3 h at 4° C. with constant agitation. […]

As to “survivin(T34A): dominant-negative, non-phosphorylatable survivin mutant with Thr34→Ala substitution, expressed from transfected cDNA (also HA- or GFP-tagged)”, the “spontaneous chromatin condensation and DNA fragmentation, GFP-expressing cells” value (GFP fusion, 48 h, no exogenous apoptotic stimuli) is given as approximately 80%. Also, where the note is “survivin BIR domain mutants”, the “ability to induce spontaneous apoptosis upon transient transfection” value was “particularly effective”.
